The test deals with T1, P2Y12 receptor (Homo sapiens, UniProt Q9H244).
T1 construct: expressed in transfected cells; host or cells: CHO cells (membranes)
In words: Functional inhibition of 2-Me-S-ADP induced P2Y12 signalling (35S-GTPγS, cell membranes from P2Y12 transfected CHO-cells). It counts as biochemical. To be noted: EC80 concentration of agonist 2-methyl-thio-adenosine diphosphate, 30° C., 45 min. The procedure: Functional inhibition of-the P2Y12 receptor can be measured by in vitro assays using cell membranes from P2Y12 transfected CHO-cells, the methodology is indicated below.
(§1) Functional inhibition of 2-Me-S-ADP induced P2Y12 signalling: 5 μg of membranes were diluted in 200 μl of 200 mM NaCl, 1 mM MgCl2, 50 mM HEPES (pH 7.4), 0.01% BSA, 30μg/ml saponin and 10 μM GDP. To this was added an EC80 concentration of agonist (2-methyl-thio-adenosine diphosphate), the required concentration of test compound and 0.1 μCi ^35S-GTPγS. The reaction was allowed to proceed at 30° C. for 45 min. Samples were then transferred on to GF/B filters using a cell harvester and washed with wash buffer (50 mM Tris (pH 7.4), 5 mM MgCl2, 50 mM NaCl). Filters were then covered with scintilant and counted for the amount of ^35S-GTPγS retained by the filter. Maximum activity was that determined in the presence of the agonist and minimum activity in the absence of the agonist following subtraction of the value determined for non-specific activity. The effect of compounds at various concentrations was plotted according to the equation
y=A+((B−A)/(1+((C/x)̂D)))
and IC50 estimated where • A is the bottom plateau of the curve i.e. the final minimum y value • B is the top of the plateau of the curve i.e. the final maximum y value • C is the x value at the middle of the curve. This represents the log EC50 value when A+B=100 • D is the slope factor. • x is the original known x values. • Y is the original known y values.
as §1, with “30 μg/ml” for “30μg/ml”, “0. 1” for “0.1”

The structures appear in SMILES notation.

T1 sequence (Q9H244 whole entry): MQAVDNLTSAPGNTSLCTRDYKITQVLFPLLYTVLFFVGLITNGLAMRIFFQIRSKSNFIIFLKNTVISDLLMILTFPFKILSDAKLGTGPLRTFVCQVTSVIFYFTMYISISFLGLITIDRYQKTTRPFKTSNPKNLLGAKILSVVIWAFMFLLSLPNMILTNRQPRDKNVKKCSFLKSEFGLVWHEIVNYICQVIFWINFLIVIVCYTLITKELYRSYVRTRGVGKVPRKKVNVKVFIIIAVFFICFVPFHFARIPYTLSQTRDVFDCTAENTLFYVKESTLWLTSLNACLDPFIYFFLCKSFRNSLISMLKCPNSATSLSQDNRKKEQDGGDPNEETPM

The term IC50 denotes the midpoint of a concentration-inhibition curve. Low readings indicate inhibition by little substance, high ones a need for much substance. `CCOC(=O)c1cc(C#N)c(N2CCC(C(=O)NS(=O)(=O)Cc3ccccc3)CC2)nc1OC` [Example 1, Ethyl6-{4-[(benzylsulfonyl)carbamoyl]piperidin-1-yl}-5-cyano-2-methoxynicotinate] gave an IC50 of 0.012 µM. In the case of `CCOC(=O)c1cc(C#N)c(N2CC(C(=O)NS(=O)(=O)Cc3ccccc3)C2)nc1OC` [Example 2, Ethyl6-{3-[(benzylsulfonyl)carbamoyl]azetidin-1-yl}-5-cyano-2-methoxynicotinate] it was 0.018 µM; in that of `CCOC(=O)c1cc(C#N)c(N2CCC(C(=O)NS(=O)(=O)Cc3ccccc3)CC2)nc1OCC` [Example 3, Ethyl6-{4-[(benzylsulfonyl)carbamoyl]piperidin-1-yl}-5-cyano-2-ethoxynicotinate], 0.012 µM; in that of `CCOC(=O)c1cc(C#N)c(N2CCC(C(=O)NS(=O)(=O)Cc3ccccc3)CC2)nc1SCC` [Example 4, Ethyl6-{4-[(benzylsulfonyl)carbamoyl]piperidin-1-yl}-5-cyano-2-(ethylthio)nicotinate], 0.006 µM. Consider `CCOC(=O)c1cc(C#N)c(N2CCC(C(=O)NS(=O)(=O)Cc3ccccc3)CC2)nc1C#N` [Example 5, Ethyl6-{4-[(benzylsulfonyl)carbamoyl]piperidin-1-yl}-2,5-dicyanonicotinate], for which the IC50 was determined as 0.009 µM. Turning to `CCOC(=O)c1cc(C#N)c(N2CCC(C(=O)NS(=O)(=O)Cc3ccccc3)CC2)nc1CO` [Example 6, Ethyl6-{4-[(benzylsulfonyl)carbamoyl]piperidin-1-yl}-5-cyano-2-(hydroxymethyl)nicotinate], the IC50 worked out at 0.017 µM. In the case of `CCOC(=O)c1cc(C#N)c(N2CCC(C(=O)NS(=O)(=O)Cc3ccccc3F)CC2)nc1OC` [Example 8, Ethyl5-cyano-6-(4-{[(2-fluorobenzyl)sulfonyl]carbamoyl}piperidin-1-yl)-2-methoxynicotinate] it was 0.01 µM; in that of `CCOC(=O)c1cc(C#N)c(N2CCC(C(=O)NS(=O)(=O)Cc3ccccc3Cl)CC2)nc1OC` [Example 9, Ethyl6-(4-{[(2-chlorobenzyl)sulfonyl]carbamoyl}piperidin-1-yl)-5-cyano-2-methoxynicotinate], 0.032 µM. In the case of `CCOC(=O)c1cc(C#N)c(N2CCC(C(=O)NS(=O)(=O)Cc3cccc(F)c3)CC2)nc1OC` [Example 10, Ethyl5-cyano-6-(4-{[(3-fluorobenzyl)sulfonyl]carbamoyl}piperidin-1-yl)-2-methoxynicotinate], the IC50 amounted to 0.016 µM.

Compound `CCOC(=O)c1cc(C#N)c(N2CCC(C(=O)NS(=O)(=O)Cc3ccc(F)cc3)CC2)nc1OC` [Example 11, Ethyl5-cyano-6-(4-{[(4-fluorobenzyl)sulfonyl]carbamoyl}piperidin-1-yl)-2-methoxynicotinate] returned an IC50 of 0.009 µM. `CCOC(=O)c1cc(C#N)c(N2CCC(C(=O)NS(=O)(=O)Cc3ccc(Cl)cc3)CC2)nc1OC` [Example 12, Ethyl6-(4-{[(4-chlorobenzyl)sulfonyl]carbamoyl}piperidin-1-yl)-5-cyano-2-methoxynicotinate] yielded an IC50 of 0.009 µM.

`CCOC(=O)c1cc(C#N)c(N2CCC(C(=O)NS(=O)(=O)Cc3ccc(C(F)(F)F)cc3)CC2)nc1OC` [Example 13, Ethyl5-cyano-2-methoxy-6-[4-({[4-(trifluoromethyl)benzyl]sulfonyl}carbamoyl)piperidin-1-yl]nicotinate] registered an IC50 of 0.019 µM. In the case of `CCOC(=O)c1cc(C#N)c(N2CCC(C(=O)NS(=O)(=O)Cc3ccc(F)c(F)c3)CC2)nc1OC` [Example 14, Ethyl5-cyano-6-(4-{[(3,4-difluorobenzyl)sulfonyl]carbamoyl}piperidin-1-yl)-2-methoxynicotinate] it was 0.013 µM; in that of `CCOC(=O)c1cc(C#N)c(N2CCC(C(=O)NS(=O)(=O)Cc3ccc(Cl)cc3Cl)CC2)nc1OC` [Example 15, Ethyl5-cyano-6-(4-{[(2,4-dichlorobenzyl)sulfonyl]carbamoyl}piperidin-1-yl)-2-methoxynicotinate], 0.022 µM; in that of `CCOC(=O)c1cc(C#N)c(N2CCC(C(=O)NS(=O)(=O)Cc3ccc(F)cc3F)CC2)nc1OC` [Example 16, Ethyl5-cyano-6-(4-{[(2,4-difluorobenzyl)sulfonyl]carbamoyl}piperidin-1-yl)-2-methoxynicotinate], 0.008 µM.

`CCOC(=O)c1cc(C#N)c(N2CCC(C(=O)NS(=O)(=O)Cc3ccc(F)cc3Cl)CC2)nc1OC` [Example 17, Ethyl6-(4-{[(2-chloro-4-fluorobenzyl)sulfonyl]carbamoyl}piperidin-1-yl)-5-cyano-2-methoxynicotinate] came in with an IC50 of 0.024 µM. This IC50 is about 3-fold higher than that of the compound before. In turn, `CCOC(=O)c1cc(C#N)c(N2CCC(C(=O)NS(=O)(=O)Cc3ccc(Cl)cc3F)CC2)nc1OC` [Example 18, Ethyl6-(4-{[(4-chloro-2-fluorobenzyl)sulfonyl]carbamoyl}piperidin-1-yl)-5-cyano-2-methoxynicotinate] came in with an IC50 of 0.01 µM. Against the preceding compound, the IC50 is about 2.4-fold lower.

Turning to `CCOC(=O)c1cc(C#N)c(N2CCC(C(=O)NS(=O)(=O)Cc3cccc(F)c3F)CC2)nc1OC` [Example 19, Ethyl5-cyano-6-(4-{[(2,3-difluorobenzyl)sulfonyl]carbamoyl}piperidin-1-yl)-2-methoxynicotinate], the concentration for half-maximal inhibition (IC50) is 0.031 µM. In the case of `CCOC(=O)c1cc(C#N)c(N2CC(C(=O)NS(=O)(=O)c3ccccc3)C2)nc1OC` [Example 20, Ethyl5-cyano-2-methoxy-6-{3-[(phenylsulfonyl)carbamoyl]azetidin-1-yl}nicotinate] it was 0.102 µM; in that of `CCOC(=O)c1cc(C#N)c(N2CC(C(=O)NS(=O)(=O)Cc3ccccc3Cl)C2)nc1OC` [Example 22, Ethyl6-(3-{[(2-chlorobenzyl)sulfonyl]carbamoyl}azetidin-1-yl)-5-cyano-2-methoxynicotinate], 0.012 µM. In turn, `CCOC(=O)c1cc(C#N)c(N2CC(C(=O)NS(=O)(=O)Cc3cccc(F)c3)C2)nc1OC` [Example 23, Ethyl5-cyano-6-(3-{[(3-fluorobenzyl)sulfonyl]carbamoyl}azetidin-1-yl)-2-methoxynicotinate] had an IC50 of 0.044 µM. `CCOC(=O)c1cc(C#N)c(N2CC(C(=O)NS(=O)(=O)Cc3ccc(F)cc3)C2)nc1OC` [Example 24, Ethyl5-cyano-6-(3-{[(4-fluorobenzyl)sulfonyl]carbamoyl}azetidin-1-yl)-2-methoxynicotinate]: the IC50 was determined as 0.009 µM. The compound `CCOC(=O)c1cc(C#N)c(N2CC(C(=O)NS(=O)(=O)Cc3ccc(Cl)cc3)C2)nc1OC` [Example 25, Ethyl6-(3-{[(4-chlorobenzyl)sulfonyl]carbamoyl}azetidin-1-yl)-5-cyano-2-methoxynicotinate] displayed a half-inhibitory concentration (IC50) of 0.006 µM. In the case of `CCOC(=O)c1cc(C#N)c(N2CC(C(=O)NS(=O)(=O)Cc3ccc(C(F)(F)F)cc3)C2)nc1OC` [Example 26, Ethyl5-cyano-2-methoxy-6-[3-({[4-(trifluoromethyl)benzyl]sulfonyl}carbamoyl)azetidin-1-yl]nicotinate] it was 0.012 µM; in that of `CCOC(=O)c1cc(C#N)c(N2CC(C(=O)NS(=O)(=O)Cc3ccc(F)c(F)c3)C2)nc1OC` [Example 27, Ethyl5-cyano-6-(3-{[(3,4-difluorobenzyl)sulfonyl]carbamoyl}azetidin-1-yl)-2-methoxynicotinate], 0.035 µM; in that of `CCOC(=O)c1cc(C#N)c(N2CC(C(=O)NS(=O)(=O)Cc3ccc(Cl)cc3Cl)C2)nc1OC` [Example 28, Ethyl5-cyano-6-(3-{[(2,4-dichlorobenzyl)sulfonyl]carbamoyl}azetidin-1-yl)-2-methoxynicotinate], 0.005 µM. In the case of `CCOC(=O)c1cc(C#N)c(N2CC(C(=O)NS(=O)(=O)Cc3ccc(F)cc3F)C2)nc1OC` [Example 29, Ethyl5-cyano-6-(3-{[(2,4-difluorobenzyl)sulfonyl]carbamoyl}azetidin-1-yl)-2-methoxynicotinate] it was 0.01 µM. As to `CCOC(=O)c1cc(C#N)c(N2CC(C(=O)NS(=O)(=O)Cc3ccc(F)cc3Cl)C2)nc1OC` [Example 30, Ethyl6-(3-{[(2-chloro-4-fluorobenzyl)sulfonyl]carbamoyl}azetidin-1-yl)-5-cyano-2-methoxynicotinate], the IC50 stood at 0.009 µM.

`CCOC(=O)c1cc(C#N)c(N2CC(C(=O)NS(=O)(=O)Cc3ccc(Cl)cc3F)C2)nc1OC` [Example 31, Ethyl6-(3-{[(4-chloro-2-fluorobenzyl)sulfonyl]carbamoyl}azetidin-1-yl)-5-cyano-2-methoxynicotinate]: the IC50 was 0.005 µM.

(Values after US20080171732A1, “New Pyridine Analogues IX 519” (AstraZeneca AB, priority 2007, published 2008).)
